# Source: ChEMBL document CHEMBL5579853, “Recent progress in the development of hypoxia-inducible factor 2α (HIF-2α) modulators: Inhibitors, agonists, and degraders (2009-2024)” (Eur J Med Chem, 2024)
# Test system: 786-0
# Experiment: cells
# Conditions: Homo sapiens, 786-0, 72 h
# Description: Antiproliferative activity against human 786-0 cells assessed as inhibition of cell growth incubated for 72 hrs by celltiter-glo assay
row,SMILES,IC50 [µM]
1,CNC(=O)c1ccn2c(C(F)F)cc(-c3ccc(C)c(C)c3)nc12,< 5
2,CC[C@@H](Nc1cccc(F)c1)C(=O)N/N=C/c1cccc(C)c1O,5

# Molecular target: Endothelial PAS domain-containing protein 1 (Homo sapiens, UniProt Q99814)
# Experiment: Inhibition of HIF-2alpha (unknown origin)
# Conditions: not given
# Chain of Endothelial PAS domain-containing protein 1 (Q99814 whole entry, the tested form may be a part): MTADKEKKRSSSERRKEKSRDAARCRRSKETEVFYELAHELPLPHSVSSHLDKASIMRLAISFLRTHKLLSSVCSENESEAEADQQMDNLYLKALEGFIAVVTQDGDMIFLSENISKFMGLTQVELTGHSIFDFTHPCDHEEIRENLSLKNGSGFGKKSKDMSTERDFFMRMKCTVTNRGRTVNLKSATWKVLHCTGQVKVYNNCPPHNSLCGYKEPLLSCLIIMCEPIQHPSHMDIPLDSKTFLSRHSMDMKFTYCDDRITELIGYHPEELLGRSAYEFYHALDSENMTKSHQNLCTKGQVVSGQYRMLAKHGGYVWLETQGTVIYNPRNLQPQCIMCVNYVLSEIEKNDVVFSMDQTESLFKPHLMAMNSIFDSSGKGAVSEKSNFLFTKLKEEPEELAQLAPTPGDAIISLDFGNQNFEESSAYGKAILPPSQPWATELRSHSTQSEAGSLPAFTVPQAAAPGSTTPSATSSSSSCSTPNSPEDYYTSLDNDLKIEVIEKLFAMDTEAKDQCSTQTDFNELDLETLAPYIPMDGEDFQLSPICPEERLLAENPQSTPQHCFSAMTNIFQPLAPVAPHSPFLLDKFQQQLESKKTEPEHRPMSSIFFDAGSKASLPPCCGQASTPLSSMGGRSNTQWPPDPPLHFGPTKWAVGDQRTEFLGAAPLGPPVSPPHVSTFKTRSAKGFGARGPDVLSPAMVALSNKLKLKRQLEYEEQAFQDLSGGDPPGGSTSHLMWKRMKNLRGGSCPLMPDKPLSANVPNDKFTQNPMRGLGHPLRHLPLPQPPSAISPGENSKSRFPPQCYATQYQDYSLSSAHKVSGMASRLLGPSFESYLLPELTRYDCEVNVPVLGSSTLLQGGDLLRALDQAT
row,SMILES,EC50 [µM]
1,OC1c2c(C(F)(F)F)cn(-c3cncc(F)c3)c2CC(F)C1F (stereo not drawn),0.5
2,O[C@H]1c2c(C(F)(F)F)ncc(OC3CC(F)(F)C3)c2[C@@H](F)[C@H]1F,0.021
3,O[C@@H]1CCc2c(Oc3cc(F)cc(F)c3)ncnc21,0.011
4,CP(C)(=O)c1ccc(Oc2cc(F)cc(F)c2)c2c1C(O)C(F)(F)C2 (stereo not drawn),0.029
5,N#Cc1cc(F)cc(Oc2ccc(S(=O)(=O)C(F)(F)F)c3[nH]ncc23)c1,< 0.1
6,CS(=O)(=O)c1ccc(N2CCCc3ccccc32)c2c1[C@H](O)[C@H](F)C2,0.34
7,CS(=O)(=O)c1ccc([C@H]2CCCc3cc(F)cc(C#N)c32)c2c1[C@H](O)[C@H](F)[C@@H]2F,< 0.1
8,N#Cc1cc(F)cc(Oc2ccc3c4c2C(F)CC4(O)C(F)(F)S3(=O)=O)c1 (stereo not drawn),< 0.05
9,CS(=O)(=O)c1sc(N2CCCc3ccccc32)c2c1[C@H](O)[C@H](F)C2,2.2

# Molecular target: T1, Vascular endothelial growth factor A, long form (Homo sapiens, UniProt P15692)
# T1 sequence (P15692 whole entry): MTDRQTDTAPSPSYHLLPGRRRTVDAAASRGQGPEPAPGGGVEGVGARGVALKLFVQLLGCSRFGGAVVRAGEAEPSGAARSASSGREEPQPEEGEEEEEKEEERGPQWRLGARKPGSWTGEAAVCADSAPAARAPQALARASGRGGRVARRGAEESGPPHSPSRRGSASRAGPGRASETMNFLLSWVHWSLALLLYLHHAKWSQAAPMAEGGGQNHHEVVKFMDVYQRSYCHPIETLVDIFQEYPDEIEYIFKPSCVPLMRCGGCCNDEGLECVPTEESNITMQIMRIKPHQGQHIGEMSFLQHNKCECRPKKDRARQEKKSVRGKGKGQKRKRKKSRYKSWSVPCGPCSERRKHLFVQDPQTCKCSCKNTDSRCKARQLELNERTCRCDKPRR
# Experiment: Inhibition of VEGF (unknown origin) by FRET based analysis
# Conditions: not given
row,SMILES,IC50 [µM]
1,Fc1c(C(F)(F)F)ncc2c1SC[C@H](F)[C@@]21CN2C=C(C(F)(F)F)C(OC(F)F)=CC2=N1,0.015
2,FC(F)OC1=CC2=N[C@]3(C[C@H]4C[C@H]4c4c3ccnc4Cl)CN2C=C1C(F)(F)F,0.05
